Assay results reported in patent US20240423968A1, “USE OF PROTEASOME-TARGETING SMALL MOLECULES TO MITIGATE MUSCLE WASTING” (The Board of Regents of the University of Texas System, priority 2023, published 2024).
Where two headings read alike, the source gives them in different places. Each block holds one compound with its values, some of them ahead of it.

How the values were obtained:
[1] = target: 20S human housekeeping proteasome (Homo sapiens, UniProt P28074); test: 20S ChT-L proteolytic activity assay (Suc-LLVY-AMC hydrolysis, Rpt5 peptide-activated); type: biochemical; conditions: for activity against 20S ChT-L proteolysis, in words: SAR comparison
Procedure: Compounds were evaluated for proteasome activity using the 20S human housekeeping proteasome. It was activated with the Rpt5 derived 10-residue peptide that contains the C-terminal HbYX (hydrophobic-Tyr-any AA) motif activating the proteasome in trans and to some extend mimic the activation by the 19S regulatory particle (Osmulski and Gaczynska (2013) Molecular pharmacology 84: 104-113; Smith et al. (2006) J. Struct. Biol. 156: 72-83; Smith et al. (2007) Mol. Cell 27: 731-744). Proteolytic activity was monitored over time using a fluorogenic peptide substrate specific for the chymotrypsin-like active center (ChT-L, Suc-LLVY-AMC) in the presence of a concentration range of the inhibitors. In this activity assay, hydrolysis of the substrate results in release of the highly fluorescent aminomethylcoumarin fluorophore. The linear portions of the fluorescence intensity plots were used to calculate the rates of Suc-LLVY-AMC hydrolysis and an IC50 (concentration of drug at which 50% of the maximum rate inhibition occurs) is determined.

[2] = system: autophagy-related protein 7 (ATG7); test: Levels of autophagy-related protein 7 (ATG7) in lysates (Western blotting); type: cell-based, mouse; conditions: model-wasted cells
Source text: (§1) The mechanism of the anti-wasting action of proteasome modulators can be probed by measuring the 26S activity in lysates and measuring the levels of autophagy-related protein 7 (ATG7) in lysates. Excessive activity of 26S holoenzyme bears prime responsibility for degradation of muscle proteins during wasting. […] Autophagy, alongside proteasome pathway, aggravates degeneration.

C2C12 myotubes = test: Myotube morphology (diameters) in the TNFα-induced muscle atrophy cell culture model; type: cell-based, mouse; conditions: for myotube morphology when applied alongside TNFα: TNFα 15 ng/ml for 72 hours, compound added together with TNFα; for effect on cell morphology in the control: compound without TNFα
Procedure: Mouse C2C12 myoblasts were purchased in American Tissue Type Collection (ATCC CRL-1772) were cultured in Dulbecco's modified Eagle's medium (DMEM) supplementec with 15% fetal bovine serum (FBS) and penicillin/streptomycin, at 37° C. and 5% CO2. After reaching confluence the myoblasts were differentiated into myotubes by culturing for 72 hours under low-serum conditions (2% horse serum, 0.5 microgram/ml insulin. After that, model muscle atrophy was induced by the treatment with tumor necrosis factor alpha (TNFα) at 15 ng/ml for 72 hours. Vehicle (dimethylsulfoxide; DMSO) or desired compounds (B1, C3, bortezomib) were added to the culture medium together with TNFα.
Myotubes were visualized as described in Eric J. Stevenson, et al., Journal of Applied Physiology 2005 98:4, 1396-1406. All myotubes analyzed in randomly selected microscope fields, with three diameters per tube and at least 50 myotubes analyzed per experimental point.
The diameters of C2C12 myotubes can be utilized to look for indications of degeneration.

C2C12 cells = test: Principal component analysis of AFM-assessed mechanical parameters of model myotubes; type: cell-based, mouse; conditions: C2C12 cells treated with TNFα plus compound
Procedure: (§2) Cultured cells growing on dishes were scanned with a Catalyst Atomic Force Microscope (Bruker) mounted on a Nikon Ti inverted epifluorescent microscope. Nanomechanical parameters of cells were collected in the Quantitative Nanomechanical Mapping (PF-QNM) mode of the AFM. Before AFM imaging, optical images were recorded for each cell. SCANASYST-AIR probes were used for imaging after their spring constant was determined with the thermal tuning. Cell boundaries were located with peak force error (PFE) AFM images and further verified with height images. Nanomechanical parameters of cells were captured in three separate PF-QNM channels: elasticity (or stiffness—the Young's modulus), deformation and adhesion. Analysis of these parameters was performed with NanoScope Analysis software v. 1.7 (Osmulski, P. A., et al., Cancer Res. 2021 Aug. 1; 81(15):4110-4123). Force curves were fit to the Sneddon model. Mode values of the mechanical parameters for individual cells were calculated from the corresponding distribution histograms. The Texture Aspect Ratio, as a measure of the spatial isotropy or directionality of the surface texture was calculated from the square height images of cells after applying the first order flatten function (Roughness Analysis in NanoScope Analysis v. 1.7).
Mouse C2C12 myoblasts were purchased in American Tissue Type Collection (ATCC CRL-1772) were cultured in Dulbecco's modified Eagle's medium (DMEM) supplementec with 15% fetal bovine serum (FBS) and penicillin/streptomycin, at 37° C. and 5% CO2. […]
Principal component analysis (PCA) was utilized to evaluate the AFM-assessed mechanical parameters of model myotubes in C2C12 cells treated with TNFα alone or with compounds B1 or C3. […]

[3] = system: C2C12-derived mouse myocytes; test: Cellular AFM: cell surface isotropy (cytoskeleton organization) of model myotubes; type: cell-based; conditions: compound accompanies TNFα; AFM roughness analysis
Procedure: as §2, with “Nanomechanical parameters of cells were captured in three separate PF-QNM channels: elasticity (or stiffness—the Young's modulus), deformation and adhesion. Analysis of these parameters was performed with NanoScope Analysis software v. 1.7 (Osmulski, P. A., et al., Cancer Res. 2021 Aug. 1; 81(15):4110-4123). Force curves were fit to the Sneddon model.” left out, “1.7). […]” for “1.7).”
Cellular atomic force microscopy (AFM) of C2C12-derived mouse myocytes was utilized to show the effect of TNFα on the cytosketon organization of the myotube surface patterns (FIG. 5). The regularity of the pattern can be assessed by roughness analysis of the AFM images.
The surface isotropy parameter can quantify the regularity of the patterns observed in AFM. […]

26S holoenzyme = test: 26S activity in lysates (in-gel activity assay, Suc-LLVY-MCA overlay); type: cell-based, mouse; conditions: model-wasted cells
Source text: as §1

[4] = system: myofibers in quadriceps of tumor-bearing mice; test: In vivo mouse model of cancer cachexia (nude mice xenografted with PC3 cells), quadriceps myofiber diameters, H&E
Procedure: The mouse model of cancer-related muscle wasting consistent of nude mice xenografted with human cultured androgen-resistant prostate cancer PC3 cells. The mice were treated intra-tumorally (IT) with the vehicle (dimethylsulfoxide; DMSO); 8 control mice) or with 10 mg/kg of compound 3. Three injections per week (Mondays, Wednesdays, and Fridays) were carried for three weeks. After that, mice were sacrificed and quadriceps muscle tissues were preserved by standard formalin fixing. Muscle tissue slices were stained with hematoxilin and eosin (H&E standard staining) to visualize muscle fibers and enable myofiber diameter measurements under a standard microscope. Myofibers for 4 control (vehicle-treated) and 4 compound 3-treated mice were measured.
The quadriceps muscle in tumor-bearing mice treated with C3 […] a weeks for three weeks was compared to control using H&E-stained tissues slices (FIG. 10). Frequency analysis of diameters of myofibers (400 myofibers each) from tumor-bearing mice (4 each of the control-vehicle and c3 (10 mg/kg)) was performed (FIG. 11).

[5] = Table 3, proline derivatives, ChT-L activity of 20S, read-out: IC50
[6] = Table 2, pipecolic acid derivatives, ChT-L activity of 20S, read-out: IC50
[7] = read-out: IC50, ChT-L activity of the 20S proteasome

SMILES: COc1cc(CCCOC(=O)C2CCCCN2C(=O)C(=O)C2CCCCC2)cc(OC)c1OC (racemic) [B1]
- IC50 [1, 6]: 5.8 µM
- autophagy (ATG7 levels in lysates) [2]: does not affect or mitigates autophagy
- myotube morphology when applied alongside TNFα (C2C12 myotubes): restored the morphogy to control-like status
- effect on cell morphology in the control (C2C12 myotubes): no effect on the cell morphology
- AFM-assessed mechanical parameters (PCA phenotype) (C2C12 cells): preserve the control-like phenotypes
- cell surface patterning (surface isotropy) [3]: remains control-like
- 26S activity in lysates (26S holoenzyme): mitigates the activity

SMILES: COc1cc(CCCOC(=O)C2CCCCN2C(=O)OCc2ccccc2)cc(OC)c1OC (racemic) [Compound 2]
- IC50 [1, 7]: 11.5 µM

SMILES: COc1cc(COC(=O)[C@@H]2CCCCN2C(=O)OCc2ccccc2)cc(OC)c1OC [Compound 7]
- activity against 20S ChT-L proteolysis, in words [1]: significantly reduced its activity
- IC50 [1, 6]: 19.8 µM

SMILES: COc1cc(CCCOC(=O)[C@@H]2CCCCN2C(=O)OCC(C)C)cc(OC)c1OC [Compound 4]
- IC50 [1, 7]: 15.2 µM

SMILES: COC(=O)N1CCCC[C@H]1C(=O)OCCCc1cc(OC)c(OC)c(OC)c1 [Compound 5]
- activity against 20S ChT-L proteolysis, in words [1]: completely abrogated activity
- IC50 [1, 6]: > 50 µM

SMILES: CC(C)C[C@H](NC(=O)[C@H](Cc1ccccc1)NC(=O)c1cnccn1)B(O)O [bortezomib, reference compound]
- autophagy (ATG7 levels in lysates) [2]: upregulates autophagy
- myotube morphology when applied alongside TNFα (C2C12 myotubes): failed to protect the myotubes
- effect on cell morphology in the control (C2C12 myotubes): harmed the cells
- AFM-assessed mechanical parameters (PCA phenotype) (C2C12 cells): does not protect the phenotypes

SMILES: COc1cc(CCOC(=O)[C@@H]2CCCCN2C(=O)OCc2ccccc2)cc(OC)c1OC [Compound 6]
- IC50 [1, 6]: 20.1 µM

SMILES: O=C(OCCCc1ccccc1)[C@@H]1CCCCN1C(=O)OCc1ccccc1 [Compound 8]
- activity against 20S ChT-L proteolysis, in words [1]: significantly reduced its activity
- IC50 [1, 6]: 2.6 µM

SMILES: COc1cc(CCCOC(=O)[C@@H]2CCCCN2C(=O)OCc2ccccc2)cc(OC)c1OC [Compound 3]
- IC50 [1, 6]: 2 µM
- IC50 [1, 7]: 3.1 µM
- autophagy (ATG7 levels in lysates) [2]: does not affect or mitigates autophagy
- myotube morphology when applied alongside TNFα (C2C12 myotubes): restored the morphogy to control-like status
- effect on cell morphology in the control (C2C12 myotubes): no effect on the cell morphology
- AFM-assessed mechanical parameters (PCA phenotype) (C2C12 cells): preserve the control-like phenotypes
- diameters of myofibers (frequency analysis) ([4]; 400 myofibers each, 4 mice each, 10 mg/kg vs control-vehicle, difference significant at p<1.47×10^−21): Higher values of myofiber diameters
- myofiber morphology in quadriceps ([4]; tumor-bearing mice, 10 mg/kg intra-tumorally, three weeks, vs vehicle): improved myofiber morphology
- cell surface patterning (surface isotropy) [3]: remains control-like
- 26S activity in lysates (26S holoenzyme): mitigates the activity

Further lines, results first:

- activity against 20S ChT-L proteolysis, in words [1]: decreased activity
- IC50 [1, 5]: 33.5 µM
SMILES: O=C(OCc1ccccc1)[C@@H]1CCCN1C(=O)OCc1ccccc1 [Compound 15]

- IC50 [1, 6]: > 50 µM
SMILES: O=C(O)[C@@H]1CCCCN1C(=O)OCc1ccccc1 [Compound 10]

- activity against 20S ChT-L proteolysis, in words [1]: decreased activity
- IC50 [1, 5]: 19.2 µM
SMILES: O=C(OCCc1ccccc1)[C@@H]1CCCN1C(=O)OCc1ccccc1 [Compound 14]

- IC50 [1, 6]: 14.7 µM
SMILES: COc1cc(CCCOC(=O)[C@@H]2CCCN(C(=O)OCc3ccccc3)C2)cc(OC)c1OC [Compound 11]

- IC50 [1, 7]: 6.6 µM
SMILES: O=C(OCCCc1ccccc1)[C@@H]1CCCN1C(=O)OCc1ccccc1 [Compound 13]

- IC50 [1, 6]: > 50 µM
SMILES: CCCOC(=O)[C@@H]1CCCCN1C(=O)OCc1ccccc1 [Compound 9]

- activity against 20S ChT-L proteolysis, in words [1]: modest activity
- IC50 [1, 5]: 23.8 µM
SMILES: COc1cc(CCCOC(=O)[C@@H]2CCCN2C(=O)OCc2ccccc2)cc(OC)c1OC [Compound 12]
